Experimental data: patent US10633353B2, “Polymerizable compound, composition, polymer, optically anisotropic body, liquid crystal display element, and organic EL display” (DIC Corporation, priority 2014, dated 2020)

assay: Preservation stability of the coating liquid; assay type: physicochemical; details: coating liquid stored for 2 months shielded from light at 0° C.; appearance and GPC
Procedure: The preservation stability of the coating liquid was evaluated on a scale of A to E on the basis of the state of the coating liquid that was stored for 2 months under a condition where the coating liquid was shielded from light at 0° C.
A: No visual change in the appearance of the coating liquid was confirmed. A GPC analysis of the coating liquid confirmed that the change in the composition of the coating liquid was 1% or less.
B: No visual change in the appearance of the coating liquid was confirmed. A GPC analysis of the coating liquid confirmed that the change in the composition of the coating liquid was 2% or less.
C: A visual change in the appearance of the coating liquid was confirmed; a trace amount of insoluble components were confirmed, or a GPC analysis of the coating liquid confirmed that the change in the composition of the coating liquid was 3% or less.
D: A visual change in the appearance of the coating liquid was confirmed; insoluble components were confirmed. The ratio of the weight of the insoluble components to the total solid content was 5% or less.
E: A large amount of insoluble components were visually confirmed. The ratio of the weight of the insoluble components to the total solid content was 5% or more.

Question: For C=CC(=O)OCCCCCCOc1ccc(C(=O)OCCc2ccc(OC(=O)c3ccc(OCCCCCCOC(=O)C=C)cc3)c(/C=N/Nc3nc4ccccc4s3)c2)cc1 [1-c-1], which Preservation stability is on record?
Answer: A (No visual change in the appearance of the coating liquid was confirmed. A GPC analysis of the coating liquid confirmed that the change in the composition of the coating liquid was 1% or less.)

Question: Which Preservation stability does the source give for C=CC(=O)OCCCOc1ccc(C(=O)OCCc2ccc(OC(=O)c3ccc(OCCCOC(=O)C=C)cc3)c(/C=N/Nc3nc4ccccc4s3)c2)cc1 [1-c-2] here?
Answer: A (No visual change in the appearance of the coating liquid was confirmed. A GPC analysis of the coating liquid confirmed that the change in the composition of the coating liquid was 1% or less.)

Question: For C=CC(=O)OCCCCOc1ccc(C(=O)OCCc2ccc(OC(=O)c3ccc(OCCCCOC(=O)C=C)cc3)c(/C=N/Nc3nc4ccccc4s3)c2)cc1 [1-c-3], which Preservation stability is on record?
Answer: A (No visual change in the appearance of the coating liquid was confirmed. A GPC analysis of the coating liquid confirmed that the change in the composition of the coating liquid was 1% or less.)

Question: With C=CC(=O)OCCCCCOc1ccc(C(=O)OCCc2ccc(OC(=O)c3ccc(OCCCCCOC(=O)C=C)cc3)c(/C=N/Nc3nc4ccccc4s3)c2)cc1 [1-c-4] as the compound, how does the Preservation stability read?
Answer: A (No visual change in the appearance of the coating liquid was confirmed. A GPC analysis of the coating liquid confirmed that the change in the composition of the coating liquid was 1% or less.)

Question: For C=C(C)C(=O)OCCCOc1ccc(C(=O)OCCc2ccc(OC(=O)c3ccc(OCCCOC(=O)C(=C)C)cc3)c(/C=N/Nc3nc4ccccc4s3)c2)cc1 [1-c-5], which Preservation stability is on record?
Answer: A (No visual change in the appearance of the coating liquid was confirmed. A GPC analysis of the coating liquid confirmed that the change in the composition of the coating liquid was 1% or less.)

Question: Which Preservation stability does the source give for C=C(C)C(=O)OCCCCOc1ccc(C(=O)OCCc2ccc(OC(=O)c3ccc(OCCCCOC(=O)C(=C)C)cc3)c(/C=N/Nc3nc4ccccc4s3)c2)cc1 [1-c-6] here?
Answer: A (No visual change in the appearance of the coating liquid was confirmed. A GPC analysis of the coating liquid confirmed that the change in the composition of the coating liquid was 1% or less.)

Question: Which Preservation stability does the source give for C=C(C)C(=O)OCCCCCOc1ccc(C(=O)OCCc2ccc(OC(=O)c3ccc(OCCCCCOC(=O)C(=C)C)cc3)c(/C=N/Nc3nc4ccccc4s3)c2)cc1 [1-c-7] here?
Answer: A (No visual change in the appearance of the coating liquid was confirmed. A GPC analysis of the coating liquid confirmed that the change in the composition of the coating liquid was 1% or less.)

Question: Which Preservation stability does the source give for C=C(C)C(=O)OCCCCCCOc1ccc(C(=O)OCCc2ccc(OC(=O)c3ccc(OCCCCCCOC(=O)C(=C)C)cc3)c(/C=N/Nc3nc4ccccc4s3)c2)cc1 [1-c-8] here?
Answer: A (No visual change in the appearance of the coating liquid was confirmed. A GPC analysis of the coating liquid confirmed that the change in the composition of the coating liquid was 1% or less.)

Question: With C=CC(=O)OCCCOc1ccc(C(=O)OCCc2ccc(CCOC(=O)c3ccc(OCCCOC(=O)C=C)cc3)c(/C=N/Nc3nc4ccccc4s3)c2)cc1 [1-c-9] as the compound, how does the Preservation stability read?
Answer: A (No visual change in the appearance of the coating liquid was confirmed. A GPC analysis of the coating liquid confirmed that the change in the composition of the coating liquid was 1% or less.)

Question: For C=CC(=O)OCCCCOc1ccc(C(=O)OCCc2ccc(CCOC(=O)c3ccc(OCCCCOC(=O)C=C)cc3)c(/C=N/Nc3nc4ccccc4s3)c2)cc1 [1-c-10], which Preservation stability is on record?
Answer: A (No visual change in the appearance of the coating liquid was confirmed. A GPC analysis of the coating liquid confirmed that the change in the composition of the coating liquid was 1% or less.)

Question: With C=CC(=O)OCCCCCOc1ccc(C(=O)OCCc2ccc(CCOC(=O)c3ccc(OCCCCCOC(=O)C=C)cc3)c(/C=N/Nc3nc4ccccc4s3)c2)cc1 [1-c-11] as the compound, how does the Preservation stability read?
Answer: A (No visual change in the appearance of the coating liquid was confirmed. A GPC analysis of the coating liquid confirmed that the change in the composition of the coating liquid was 1% or less.)

Question: With C=CC(=O)OCCCCCCOc1ccc(C(=O)OCCc2ccc(CCOC(=O)c3ccc(OCCCCCCOC(=O)C=C)cc3)c(/C=N/Nc3nc4ccccc4s3)c2)cc1 [1-c-12] as the compound, how does the Preservation stability read?
Answer: A (No visual change in the appearance of the coating liquid was confirmed. A GPC analysis of the coating liquid confirmed that the change in the composition of the coating liquid was 1% or less.)

Question: Which Preservation stability does the source give for C=CC(=O)OCCCOc1ccc(OC(=O)C2CCC(C(=O)OCCc3ccc(OC(=O)C4CCC(C(=O)Oc5ccc(OCCCOC(=O)C=C)cc5)CC4)c(C=NNc4nc5ccccc5s4)c3)CC2)cc1 (centres unmarked) [1-c-13] here?
Answer: A (No visual change in the appearance of the coating liquid was confirmed. A GPC analysis of the coating liquid confirmed that the change in the composition of the coating liquid was 1% or less.)

Question: For C=CC(=O)OCCCCOc1ccc(OC(=O)C2CCC(C(=O)OCCc3ccc(OC(=O)C4CCC(C(=O)Oc5ccc(OCCCCOC(=O)C=C)cc5)CC4)c(C=NNc4nc5ccccc5s4)c3)CC2)cc1 (centres unmarked) [1-c-14], which Preservation stability is on record?
Answer: A (No visual change in the appearance of the coating liquid was confirmed. A GPC analysis of the coating liquid confirmed that the change in the composition of the coating liquid was 1% or less.)

Question: For C=CC(=O)OCCCCCOc1ccc(OC(=O)C2CCC(C(=O)OCCc3ccc(OC(=O)C4CCC(C(=O)Oc5ccc(OCCCCCOC(=O)C=C)cc5)CC4)c(C=NNc4nc5ccccc5s4)c3)CC2)cc1 (centres unmarked) [1-c-15], which Preservation stability is on record?
Answer: A (No visual change in the appearance of the coating liquid was confirmed. A GPC analysis of the coating liquid confirmed that the change in the composition of the coating liquid was 1% or less.)

Question: Which Preservation stability does the source give for C=CC(=O)OCCCOc1ccc(C(=O)OCCc2ccc(OC(=O)c3ccc(OCCCOC(=O)C=C)cc3)c(/C=N/Nc3nc4cc([N+](=O)[O-])ccc4s3)c2)cc1 [1-c-23] here?
Answer: B (No visual change in the appearance of the coating liquid was confirmed. A GPC analysis of the coating liquid confirmed that the change in the composition of the coating liquid was 2% or less.)

Question: With C=CC(=O)OCCCOc1ccc(C(=O)OCCc2ccc(OC(=O)c3ccc(OCCCOC(=O)C=C)cc3)c(/C=N/Nc3nc4cc(Cl)ccc4s3)c2)cc1 [1-c-24] as the compound, how does the Preservation stability read?
Answer: B (No visual change in the appearance of the coating liquid was confirmed. A GPC analysis of the coating liquid confirmed that the change in the composition of the coating liquid was 2% or less.)

Question: Which Preservation stability does the source give for C=CC(=O)OCCCOc1ccc(C(=O)OCCc2ccc(OC(=O)c3ccc(OCCCOC(=O)C=C)cc3)c(/C=N/Nc3nc4cc(C#N)ccc4s3)c2)cc1 [1-c-25] here?
Answer: B (No visual change in the appearance of the coating liquid was confirmed. A GPC analysis of the coating liquid confirmed that the change in the composition of the coating liquid was 2% or less.)

Question: For C=CC(=O)OCCCOc1ccc(C(=O)OCCc2ccc(OC(=O)c3ccc(OCCCOC(=O)C=C)cc3)c(/C=N/Nc3nc4cc(CCC)ccc4s3)c2)cc1 [1-c-26], which Preservation stability is on record?
Answer: A (No visual change in the appearance of the coating liquid was confirmed. A GPC analysis of the coating liquid confirmed that the change in the composition of the coating liquid was 1% or less.)

Question: Which Preservation stability does the source give for C=CC(=O)OCCCCOc1ccc(C(=O)OCCc2ccc(OC(=O)c3ccc(OCCCCOC(=O)CC)cc3)c(/C=N/Nc3cc4ccccc4[nH]3)c2)cc1 [1-c-28] here?
Answer: B (No visual change in the appearance of the coating liquid was confirmed. A GPC analysis of the coating liquid confirmed that the change in the composition of the coating liquid was 2% or less.)

Question: With C=CC(=O)OCCCCCOc1ccc(C(=O)OCCc2ccc(OC(=O)c3ccc(OCCCCCOC(=O)C=C)cc3)c(/C=N/Nc3nc4cc(O)c([N+](=O)[O-])cc4[nH]3)c2)cc1 [1-c-29] as the compound, how does the Preservation stability read?
Answer: B (No visual change in the appearance of the coating liquid was confirmed. A GPC analysis of the coating liquid confirmed that the change in the composition of the coating liquid was 2% or less.)

Question: Which Preservation stability does the source give for C=CC(=O)OCCCCCCOc1ccc(C(=O)OCCc2ccc(OC(=O)c3ccc(OCCCCCCOC(=O)C=C)cc3)c(/C=N/Nc3nc4cc([N+](=O)[O-])ccc4s3)c2)cc1 [1-c-30] here?
Answer: B (No visual change in the appearance of the coating liquid was confirmed. A GPC analysis of the coating liquid confirmed that the change in the composition of the coating liquid was 2% or less.)

Question: For C=CC(=O)OCCCCCCOc1ccc(C(=O)OCCc2ccc(OC(=O)c3ccc(OCCCCCCOC(=O)C=C)cc3)c(/C=N/Nc3ccc(C#Cc4ccccc4)cc3)c2)cc1 [1-c-31], which Preservation stability is on record?
Answer: B (No visual change in the appearance of the coating liquid was confirmed. A GPC analysis of the coating liquid confirmed that the change in the composition of the coating liquid was 2% or less.)

Question: With C=CC(=O)OCCCCCCOc1ccc(C(=O)OCCc2ccc(OC(=O)c3ccc(OCCCCCCOC(=O)C=C)cc3)c(/C=N/Nc3ccc4ccccc4c3)c2)cc1 [1-c-32] as the compound, how does the Preservation stability read?
Answer: B (No visual change in the appearance of the coating liquid was confirmed. A GPC analysis of the coating liquid confirmed that the change in the composition of the coating liquid was 2% or less.)

Question: Which Preservation stability does the source give for C=CC(=O)OCCCCCCOc1ccc(C(=O)OCCc2ccc(OC(=O)c3ccc(OCCCCCCOC(=O)C=C)cc3)c(/C=N/Nc3nc4ccc5ccccc5c4s3)c2)cc1 [1-c-33] here?
Answer: B (No visual change in the appearance of the coating liquid was confirmed. A GPC analysis of the coating liquid confirmed that the change in the composition of the coating liquid was 2% or less.)

Question: With C=CC(=O)OCCCCCCOc1ccc(C(=O)OCCc2ccc(OC(=O)c3ccc(OCCCCCCOC(=O)C=C)cc3)c(/C=N/Nc3nc(-c4ccc5ccccc5c4)cs3)c2)cc1 [1-c-34] as the compound, how does the Preservation stability read?
Answer: B (No visual change in the appearance of the coating liquid was confirmed. A GPC analysis of the coating liquid confirmed that the change in the composition of the coating liquid was 2% or less.)
